Results reported in patent publication EP4467141A1, “PYRAZOLO-QUINOLINES AS SELECTIVE INHIBITORS OF GENOTOXIC STRESS-INDUCED IKK/NF- KB PATHWAYS FOR CANCER THERAPY” (Max-Delbrück-Centrum für Molekulare Medizin in der …, priority 2023, dated 2024).

Key:
Test in all cases: Kinase panel study
Type in all cases: biochemical
Details in all cases: read-out: Percentage of inhibition; for inhibition at 1 µM: 1000nM; for inhibition at 10 µM: 10000nM
EPHB4 = target: T1, EPHB4 (Homo sapiens, UniProt P54760)
T1 construct: purchased Thermo Fisher Scientific
T1 sequence (P54760 16-987): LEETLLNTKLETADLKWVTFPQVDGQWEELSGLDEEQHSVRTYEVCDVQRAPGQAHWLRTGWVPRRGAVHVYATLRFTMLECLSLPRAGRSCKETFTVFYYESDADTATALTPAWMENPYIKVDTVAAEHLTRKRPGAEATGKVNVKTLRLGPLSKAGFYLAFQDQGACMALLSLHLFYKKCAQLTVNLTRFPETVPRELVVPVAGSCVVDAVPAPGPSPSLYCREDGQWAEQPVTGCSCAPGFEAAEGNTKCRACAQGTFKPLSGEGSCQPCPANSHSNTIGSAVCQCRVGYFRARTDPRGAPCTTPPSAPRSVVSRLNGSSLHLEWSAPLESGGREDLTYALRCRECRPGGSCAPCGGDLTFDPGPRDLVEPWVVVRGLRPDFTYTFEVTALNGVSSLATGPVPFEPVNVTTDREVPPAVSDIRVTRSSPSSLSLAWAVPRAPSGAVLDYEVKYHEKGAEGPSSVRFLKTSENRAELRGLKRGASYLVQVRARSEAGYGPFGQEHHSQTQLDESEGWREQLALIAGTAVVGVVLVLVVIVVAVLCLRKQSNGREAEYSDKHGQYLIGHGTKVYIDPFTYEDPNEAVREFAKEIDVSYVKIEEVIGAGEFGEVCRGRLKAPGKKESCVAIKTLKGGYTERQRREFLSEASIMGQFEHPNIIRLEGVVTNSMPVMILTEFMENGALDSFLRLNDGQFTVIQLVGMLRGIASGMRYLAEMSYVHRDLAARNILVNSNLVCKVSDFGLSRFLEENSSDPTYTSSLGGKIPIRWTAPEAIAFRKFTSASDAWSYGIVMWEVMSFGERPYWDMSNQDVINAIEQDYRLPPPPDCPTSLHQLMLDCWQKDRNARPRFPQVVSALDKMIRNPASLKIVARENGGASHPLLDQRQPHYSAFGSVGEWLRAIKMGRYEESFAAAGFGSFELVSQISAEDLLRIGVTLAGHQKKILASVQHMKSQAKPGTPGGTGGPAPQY
Method in brief: (§1)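 A commercial kinase profiling service ran the assays according to its ZLyte or Adapta standard protocols. Compound was present at 10 µM or 1 µM, and kinase activity loss was expressed as percent inhibition.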

LCK = target: T2, LCK (Homo sapiens, UniProt P06239)
T2 construct: purchased Thermo Fisher Scientific
Method in brief: as §1

PRKD1 (PKC mu) = target: T3, PRKD1 (PKC mu) (Homo sapiens, UniProt Q15139)
T3 construct: purchased Thermo Fisher Scientific
T3 sequence (Q15139 1-912): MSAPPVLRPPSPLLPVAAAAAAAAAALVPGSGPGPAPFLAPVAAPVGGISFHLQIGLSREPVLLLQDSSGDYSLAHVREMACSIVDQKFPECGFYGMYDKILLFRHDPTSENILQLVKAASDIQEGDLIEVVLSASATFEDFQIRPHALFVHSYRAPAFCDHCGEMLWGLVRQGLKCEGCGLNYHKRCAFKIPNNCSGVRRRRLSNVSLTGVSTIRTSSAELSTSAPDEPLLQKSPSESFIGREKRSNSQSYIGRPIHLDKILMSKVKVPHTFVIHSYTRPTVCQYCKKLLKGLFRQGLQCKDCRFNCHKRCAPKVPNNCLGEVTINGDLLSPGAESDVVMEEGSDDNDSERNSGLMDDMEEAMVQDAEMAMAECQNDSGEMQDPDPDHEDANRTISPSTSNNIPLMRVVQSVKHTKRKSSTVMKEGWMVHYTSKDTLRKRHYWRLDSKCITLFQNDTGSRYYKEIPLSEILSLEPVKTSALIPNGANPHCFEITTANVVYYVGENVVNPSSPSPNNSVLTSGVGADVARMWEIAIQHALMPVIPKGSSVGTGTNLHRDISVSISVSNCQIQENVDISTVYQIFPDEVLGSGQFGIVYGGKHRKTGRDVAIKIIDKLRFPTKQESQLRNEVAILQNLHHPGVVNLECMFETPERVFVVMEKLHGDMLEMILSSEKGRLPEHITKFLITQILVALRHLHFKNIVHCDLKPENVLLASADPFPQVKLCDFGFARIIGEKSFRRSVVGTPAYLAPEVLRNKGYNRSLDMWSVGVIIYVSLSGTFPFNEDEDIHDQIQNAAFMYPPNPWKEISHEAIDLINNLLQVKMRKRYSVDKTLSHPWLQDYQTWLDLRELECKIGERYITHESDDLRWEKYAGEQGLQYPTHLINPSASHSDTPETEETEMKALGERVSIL
Method in brief: as §1

T2 sequence (P06239 whole entry): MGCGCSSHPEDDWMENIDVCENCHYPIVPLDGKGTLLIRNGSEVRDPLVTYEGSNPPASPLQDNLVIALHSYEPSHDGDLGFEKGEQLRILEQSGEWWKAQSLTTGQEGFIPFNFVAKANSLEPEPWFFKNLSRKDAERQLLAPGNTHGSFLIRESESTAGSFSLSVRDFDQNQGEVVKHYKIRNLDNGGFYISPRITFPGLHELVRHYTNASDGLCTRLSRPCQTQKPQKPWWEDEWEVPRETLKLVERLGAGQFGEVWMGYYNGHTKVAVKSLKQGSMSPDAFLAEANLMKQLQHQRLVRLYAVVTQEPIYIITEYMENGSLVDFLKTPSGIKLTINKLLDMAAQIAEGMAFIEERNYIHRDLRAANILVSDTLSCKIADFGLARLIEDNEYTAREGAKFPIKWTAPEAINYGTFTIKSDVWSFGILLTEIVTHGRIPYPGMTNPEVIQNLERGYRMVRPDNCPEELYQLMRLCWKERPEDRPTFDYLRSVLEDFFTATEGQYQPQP

| Compound | inhibition at 1 µM (EPHB4) [%] | inhibition at 10 µM (EPHB4) [%] | inhibition at 1 µM (LCK) [%] | inhibition at 10 µM (LCK) [%] | inhibition at 1 µM (PRKD1 (PKC mu)) [%] | inhibition at 10 µM (PRKD1 (PKC mu)) [%] |
| --- | --- | --- | --- | --- | --- | --- |
| COc1ccc2cc3c(N)nn(C(=O)c4cccc(N(C)C)c4)c3nc2c1 [MW05, (3-Amino-7-methoxypyrazolo[3,4-b]quinolin-1-yl)-[3-(dimethylamino)phenyl]methanone] | -3 | 2 | 8 | 5 | 5 | 9 |
| COc1ccc2c(c1OC)c(=O)n1c3ccc(O)cc3c3ccnc2c31 [MW01, 5-Hydroxy-10,11-dimethoxy-9H-benzo[c]indolo[3,2,1-ij][1,5]naphthyridin-9-one] | 5 | 7 | 12 | 37 | 28 | 49 |
